This note sets out measurements from patent US10287267B2, “Isoquinolin-3-yl carboxamides and preparation and use thereof” (Samumed, LLC, priority 2016, dated 2019).

SMILES strings stand for the structures. Like-named read-outs stand apart in the source and are kept apart here. Bounds are passed on as bounds.

Experiment [1] relates to Tau phosphorylation at Ser396 (pSer396). As to the kind of experiment: Tau phosphorylation assay (pSer396 ELISA / western blot) in SH-SY5Y cells.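 Note: EC50 for reduction of Tau pSer396 in lysed cells, measured by colorimetric ELISA or chemiluminescent western blot, both using the same pSer396 antibody.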 In kind it is cell-based, human. The following applies: Homo sapiens, read-out: pSer396 Tau EC50. (In an ELISA, binding on a coated surface is turned into a signal by an enzyme label.)
The subject of experiment [2] is Wnt pathway (Sp5-Luc reporter, TCF/LEF binding sites) in SW480 colon carcinoma cells. As to the kind of experiment: Screening assay for Wnt activity: Sp5-Luc reporter gene assay.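 For all read-outs here: firefly luciferase luminescence read in stably transduced SW480 cells carrying the Sp5 promoter reporter with eight TCF/LEF sites, compounds given in 0.1% DMSO final.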 The format is cell-based, human. The following applies: Homo sapiens; for EC50: Sp5-Luc reporter, SW480 cells, 36 to 48 hours. (In a reporter assay the amount or activity of a reporter protein is the signal.)
Experimental: The screening assay for Wnt activity is described as follows.
Following incubation, 15 μl of BriteLite Plus luminescence reagent (Perkin Elmer) was added to each well of the 384-well assay plates. The plates were placed on an orbital shaker for 2 min and then luminescence was quantified using the Envision (Perkin Elmer) plate reader.

A further experiment has as its system IL-6. As to the kind of experiment: IL-6 inhibition in LPS-stimulated human peripheral blood mononuclear cells (HTRF).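 For all read-outs here: IL-6 detected by HTRF with an XL665- and Cryptate-labelled anti-IL-6 antibody pair, samples run in duplicate, EC50 obtained from a four-parameter Levenberg-Marquardt curve fit.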 In kind it is cell-based. Conditions: Homo sapiens, PBMC; for inhibition at 10 µM: read-out: percent value in parentheses beside EC50 >10 μM; for EC50: Table 9, huPBMCs, LPS 50 ng/mL, 22 hours, dose-response starting from 10 μM.
The target of experiment [3] is recombinant DYRK1A kinase (Homo sapiens (Human), UniProt Q13627). Description: DYRK1A kinase assay (Ser/Thr 18 peptide Z-lyte FRET).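 Note: Read-out is the coumarin to fluorescein emission ratio, referenced to unphosphorylated (0%) and phosphorylated (100%) Ser/Thr 18 peptide controls, values from dose-response curves by non-linear regression.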 The format is biochemical. The following applies: 30 μM ATP, 1 h room temperature.
Experiment [4] concerns SW480 colon carcinoma cells. Description: Cell viability assay (CellTiter-Glo). The format is cell-based, human. Conditions: Homo sapiens; for EC50: 96 h, SW480 cells, CellTiter-Glo, four days incubation; for inhibition at 10 µM: SW480, read-out: percent inhibition at 10 μM. (In ATP-based viability assays light output follows the ATP content of the culture.)
Experiment [5] has as its system α-smooth muscle actin (αSMA) positive LL29 cells. As to the kind of experiment: Inhibition of fibrotic process: αSMA in TGF-β1 treated primary human fibroblasts from IPF patients.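 For all read-outs here: controls were TGF-β1 stimulated wells with DMSO vehicle (positive) and cells given DMSO alone (negative), cultured in F12 medium with 1% fetal bovine serum.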 The format is cell-based. Conditions: Homo sapiens, Fibroblast; for EC50: 96 h, Table 8, LL29 fibroblasts from IPF patients, TGF-β1 20 ng/mL, 4 days, dose-response 10 μM to 0.94 nM; for inhibition at 10 µM: read-out: percent value in parentheses beside EC50 >10 μM.

For a further experiment, the target named is recombinant GSK3β kinase (Homo sapiens (Human), UniProt P49841). As to the kind of experiment: GSK3β kinase assay (Ser/Thr 09 peptide Z-lyte FRET).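 Note: kinase activity read as coumarin to fluorescein emission ratio, 11-point threefold dilutions from 10 µM to 0.0003 µM in duplicate, unphosphorylated and phosphorylated peptide as 0% and 100% controls.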 Conditions: 46 μM ATP, 1 h room temperature. In kind it is biochemical.
[6] abbreviates: SH-SY5Y cells, overnight (16-18 h) exposure.

Sequence of recombinant GSK3β kinase (P49841 whole entry): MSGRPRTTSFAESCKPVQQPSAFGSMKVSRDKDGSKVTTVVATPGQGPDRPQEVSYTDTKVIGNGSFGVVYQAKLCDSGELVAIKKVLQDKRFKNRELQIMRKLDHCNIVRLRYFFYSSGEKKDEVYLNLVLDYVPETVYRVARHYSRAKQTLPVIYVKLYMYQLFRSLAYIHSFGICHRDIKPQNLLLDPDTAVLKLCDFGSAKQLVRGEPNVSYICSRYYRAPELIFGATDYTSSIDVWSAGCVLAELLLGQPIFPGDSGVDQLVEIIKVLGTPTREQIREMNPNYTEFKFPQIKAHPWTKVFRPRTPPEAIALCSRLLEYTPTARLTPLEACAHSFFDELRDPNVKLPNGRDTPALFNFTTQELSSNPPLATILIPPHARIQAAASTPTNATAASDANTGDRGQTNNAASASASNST
Experimental for IL-6: After 22 hour incubation, a mixture of anti-IL6 XL665 and anti-IL-6 Cryptate diluted in reconstitution buffer (Catalog #62IL6PEC, Cisbio Inc., Bedford, Mass.) was added to each well. […] All samples were processed in duplicate. […] EC50 was determined using software generated by Dotmatics Limited (Windhill Bishops Stortford Herts, UK) using the Levenberg-Marquardt 4 parameter fitting procedure with finite different gradients.

As usually defined, the EC50 is the midpoint of the concentration-response curve. For the compound `CN1CCN(CC(=O)Nc2cc3cc(-c4cnco4)ccc3cn2)CC1` [Compound 983, 2-(4-Methylpiperazin-1-yl)-N-(6-(oxazol-5-yl)isoquinolin-3-yl)acetamide], the EC50 in experiment [1] (setting [6]) was 1500 nM; in experiment [2], 5530 nM; in the experiment on IL-6, greater than 10000 nM; in experiment [3] it was 22.3 nM; in experiment [4], 4620 nM; in experiment [5], 679 nM. For the same compound, the EC50 on recombinant GSK3β kinase came to 303 nM. Besides, in the experiment on IL-6, the inhibition at 10 µM was determined as 9.1%.

`CCN1CCC(C(=O)Nc2cc3cc(-c4cnn(C)c4)c(F)cc3cn2)CC1` [Compound 967, 1-Ethyl-N-(7-fluoro-6-(1-methyl-1H-pyrazol-4-yl)isoquinolin-3-yl) piperidine-4-carboxamide]: the EC50 turned out to be 373 nM in experiment [1] (setting [6]); 4420 nM in experiment [2]; 1130 nM in the experiment on IL-6; 1.9 nM in experiment [3]; 459 nM in experiment [4]; 79 nM in experiment [5]. Moreover, the EC50 at recombinant GSK3β kinase was determined as 46 nM.

In the case of `Cn1cc(-c2ccc3cnc(NC(=O)CN4CCCC4)cc3c2)nn1` [Compound 487, N-(6-(1-Methyl-1H-1,2,3-triazol-4-yl)isoquinolin-3-yl)-2-(pyrrolidin-1-yl) acetamide], the half-maximal effective concentration (EC50) in experiment [1] (setting [6]) worked out at 161 nM; in experiment [2] it was 446 nM; in the experiment on IL-6 it was 3300 nM; in experiment [3] it was 7.7 nM; in experiment [4] it was 2680 nM; in experiment [5], 367 nM. In addition, the half-maximal effective concentration (EC50) on recombinant GSK3β kinase amounted to 7 nM.

In the case of `CC(C)OCCC(=O)Nc1cc2cc(-c3cncn3C)ccc2cn1` [Compound 1009, 3-Isopropoxy-N-(6-(1-methyl-1H-imidazol-5-yl)isoquinolin-3-yl) propanamide], the concentration giving a half-maximal response (EC50) in experiment [1] (setting [6]) is 68 nM; in experiment [2], 1110 nM; in the experiment with IL-6, 1840 nM; in experiment [3], 6.2 nM; in experiment [4], 2350 nM; in experiment [5], greater than 10000 nM. Moreover, on recombinant GSK3β kinase, the half-maximal effective concentration (EC50) was determined as 15 nM. In addition, the inhibition at 10 µM in experiment [5] was determined as 22.4%.

In the case of `[2H]C1([2H])CCC([2H])([2H])N1CC(=O)Nc1cc2cc(-c3cnn(C)c3)ccc2cn1` [Compound 315, N-(6-(1-Methyl-1H-pyrazol-4-yl)isoquinolin-3-yl)-2-(pyrrolidin-1-yl-2,2,5,5-d4)acetamide], the EC50 in experiment [1] (setting [6]) is 346 nM; in experiment [2] it was 1590 nM; in the experiment on IL-6 it was 819 nM; in experiment [3], 12.3 nM; in experiment [4], 1250 nM; in experiment [5], 1820 nM. Further, the EC50 on recombinant GSK3β kinase turned out to be 44 nM.

As for `Cn1cc(-c2ccc3cnc(NC(=O)C4CCC(F)(F)CC4)cc3c2)cn1` [Compound 3, 4,4-Difluoro-N-(6-(1-methyl-1H-pyrazol-4-yl)isoquinolin-3-yl) cyclohexanecarboxamide], the EC50 was 288 nM in experiment [1] (setting [6]); 1700 nM in experiment [2]; 792 nM with IL-6; 3.7 nM in experiment [3]; 2800 nM in experiment [4]; 103 nM in experiment [5]. Moreover, on recombinant GSK3β kinase, the EC50 came to 38 nM.

On to `CN1CCC(N2CCC(C(=O)Nc3cc4cc(-c5cn(C)nn5)ccc4cn3)CC2)CC1` [Compound 477, 1′-Methyl-N-(6-(1-methyl-1H-1,2,3-triazol-4-yl)isoquinolin-3-yl)-[1,4′-bipiperidine]-4-carboxamide], for which the concentration giving a half-maximal response (EC50) in experiment [1] (setting [6]) is 188 nM; in experiment [2] it was 327 nM; with IL-6 it was 2990 nM; in experiment [3] it was 1.1 nM; in experiment [4] it was 719 nM; in experiment [5], 77 nM. In addition, on recombinant GSK3β kinase, the EC50 came to 6 nM.

With `Cn1cc(-c2ccc3cnc(NC(=O)CN4CCCC4)cc3c2)cn1` [Compound 284, N-(6-(1-Methyl-1H-pyrazol-4-yl)isoquinolin-3-yl)-2-(pyrrolidin-1-yl) acetamide], the EC50 in experiment [1] (setting [6]) was found to be 359 nM; in experiment [2] it was 1870 nM; in the experiment with IL-6 it was 1180 nM; in experiment [3] it was 7.1 nM; in experiment [4] it was 2670 nM; in experiment [5] it was 2340 nM. In addition, the half-maximal effective concentration (EC50) on recombinant GSK3β kinase is 37 nM.

Turning to `CC(C(=O)Nc1cc2cc(-c3cncs3)ccc2cn1)N1CCCC1` (centres unmarked) [Compound 758, 2-(Pyrrolidin-1-yl)-N-(6-(thiazol-5-yl)isoquinolin-3-yl)propanamide], the 50% effective concentration (EC50) was 384 nM in experiment [1] (setting [6]); 1250 nM in experiment [2]; 2870 nM in the experiment with IL-6; 24.3 nM in experiment [3]; 1340 nM in experiment [4]; 265 nM in experiment [5]. The EC50 at recombinant GSK3β kinase stood at 50 nM.

In the case of `C[C@H]1CN(CC(=O)Nc2cc3cc(-c4cnn(C)c4)ccc3cn2)CCO1` [Compound 343, (S)—N-(6-(1-Methyl-1H-pyrazol-4-yl)isoquinolin-3-yl)-2-(2-methylmorpholino)acetamide], the 50% effective concentration (EC50) in experiment [1] (setting [6]) was 2400 nM; in experiment [2], 3590 nM; in the experiment on IL-6, greater than 10000 nM; in experiment [3] it was 9.9 nM; in experiment [4] it was 7890 nM; in experiment [5], 446 nM. The EC50 on recombinant GSK3β kinase was found to be 71 nM. Moreover, the inhibition at 10 µM in the experiment on IL-6 amounted to 47.4%.

As for `CN1CCC(C(=O)Nc2cc3cc(-c4cncs4)ccc3cn2)CC1` [Compound 718, 1-Methyl-N-(6-(thiazol-5-yl)isoquinolin-3-yl)piperidine-4-carboxamide], the EC50 in experiment [1] (setting [6]) amounted to 294 nM; in experiment [2], 589 nM; with IL-6 it was 406 nM; in experiment [3], 1.3 nM; in experiment [4], 483 nM; in experiment [5], 168 nM. Also, the EC50 on recombinant GSK3β kinase is 79 nM.

For `CN1CCC(N2CCC(C(=O)Nc3cc4cc(-c5cnn(C)c5)ccc4cn3)CC2)CC1` [Compound 331, 1′-Methyl-N-(6-(1-methyl-1H-pyrazol-4-yl)isoquinolin-3-yl)-[1,4′-bipiperidine]-4-carboxamide], the EC50 in experiment [1] (setting [6]) came out at 311 nM; in experiment [2], 2990 nM; in the experiment on IL-6, 882 nM; in experiment [3], 1.8 nM; in experiment [4] it was 3120 nM; in experiment [5] it was 96 nM. In addition, the EC50 at recombinant GSK3β kinase was 55 nM.

For `CN1CCC(N2CCC(C(=O)Nc3cc4cc(-c5cnco5)ccc4cn3)CC2)CC1` [Compound 978, 1′-Methyl-N-(6-(oxazol-5-yl)isoquinolin-3-yl)-[1,4′-bipiperidine]-4-carboxamide], the EC50 in experiment [1] (setting [6]) was 274 nM; in experiment [2], 2220 nM; with IL-6 it was 3360 nM; in experiment [3], 3.9 nM; in experiment [4] it was 1580 nM; in experiment [5], 722 nM. The half-maximal effective concentration (EC50) at recombinant GSK3β kinase is 220 nM.

Consider `O=C(CN1CCCC1)Nc1cc2cc(-c3cnn(C4CC4)c3)ccc2cn1` [Compound 286, N-(6-(1-Cyclopropyl-1H-pyrazol-4-yl)isoquinolin-3-yl)-2-(pyrrolidin-1-yl) acetamide], for which the concentration giving a half-maximal response (EC50) in experiment [1] (setting [6]) is 1150 nM; in experiment [2], 3140 nM; in the experiment with IL-6, 1230 nM; in experiment [3], 64.9 nM; in experiment [4] it was 3290 nM; in experiment [5], greater than 10000 nM. On recombinant GSK3β kinase, the EC50 turned out to be 186 nM. In addition, the inhibition at 10 µM in experiment [5] was found to be 16.4%.

Consider `Cn1cc(-c2ccc3cnc(NC(=O)CN4C5CCC4COC5)cc3c2)cn1` [Compound 347, 2-(3-Oxa-8-azabicyclo[3.2.1]octan-8-yl)-N-(6-(1-methyl-1H-pyrazol-4-yl)isoquinolin-3-yl)acetamide], for which the 50% effective concentration (EC50) is 4400 nM in experiment [1] (SH-SY5Y); 9440 nM in experiment [2]; greater than 10000 nM in the experiment on IL-6; 10.4 nM in experiment [3]; greater than 10000 nM in experiment [4]; 5220 nM in experiment [5]. The EC50 at recombinant GSK3β kinase amounted to 165 nM. Moreover, the inhibition at 10 µM in the experiment on IL-6 amounted to 4.5%; in experiment [4], 48.5%.

`Cc1nnc(-c2ccc3cnc(NC(=O)C4(F)CCN(CC(C)C)CC4)cc3c2)o1` [Compound 309, 4-Fluoro-1-isobutyl-N-(6-(5-methyl-1,3,4-oxadiazol-2-yl)isoquinolin-3-yl) piperidine-4-carboxamide]: the concentration for a half-maximal effect (EC50) in experiment [1] (setting [6]) was 1220 nM; in experiment [2] it was greater than 10000 nM; with IL-6 it was greater than 10000 nM; in experiment [3], 34.3 nM; in experiment [4], greater than 10000 nM; in experiment [5], 14 nM. On recombinant GSK3β kinase, the EC50 worked out at 120 nM. The inhibition at 10 µM in experiment [2] (SW480, read-out: percent inhibition at 10 μM) is 43.5%; in the experiment on IL-6 it was 4.5%; in experiment [4], 9.6%.

With `Cn1cc(-c2ccc3cnc(NC(=O)[C@@H]4CCCNC4)cc3c2)nn1` [Compound 481, (R)—N-(6-(1-Methyl-1H-1,2,3-triazol-4-yl)isoquinolin-3-yl)piperidine-3-carboxamide], the 50% effective concentration (EC50) was 662 nM in experiment [1] (setting [6]); 1540 nM in experiment [2]; 1140 nM with IL-6; 4.3 nM in experiment [3]; 1370 nM in experiment [4]; 1020 nM in experiment [5]. Further, the concentration for a half-maximal effect (EC50) on recombinant GSK3β kinase turned out to be 4 nM.
